In brackets after ≈: the same amount, converted by molar mass.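 How tested: cells in 96-well plates exposed to compound for 48 hours at five concentrations. GI50 = concentration required for 50% inhibition of growth. TGI denotes the concentration required for complete inhibition of growth.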 Where a SMILES comes first, the peptide text is derived from it. The star is where a group is joined. Boc = CC(C)(C)OC(=O)*; OBn = c1ccc(CO*)cc1
Legend:
Test in all cases: NCI anticancer screen, dose series, 48 h
UACC-257 melanoma = tested on: UACC-257 melanoma
COLO 205 colon = tested on: COLO 205 colon
SK-MEL-28 melanoma = tested on: SK-MEL-28 melanoma
UACC-62 melanoma = tested on: UACC-62 melanoma
MALME-3M melanoma = tested on: MALME-3M melanoma
SNB-75 CNS = tested on: SNB-75 CNS
K-562 leukemia = tested on: K-562 leukemia
A498 renal = tested on: A498 renal
NCI-H522 lung = tested on: NCI-H522 lung
M14 melanoma = tested on: M14 melanoma
UO-31 renal = tested on: UO-31 renal
RPMI-8226 leukemia = tested on: RPMI-8226 leukemia
OVCAR-4 ovarian = tested on: OVCAR-4 ovarian
T-47D breast = tested on: T-47D breast
MDA-MB-435 = tested on: MDA-MB-435
SW-620 colon = tested on: SW-620 colon
ACHN renal = tested on: ACHN renal
HOP-62 NSCLC = tested on: HOP-62 NSCLC
HCT-15 colon = tested on: HCT-15 colon
786-0 renal = tested on: 786-0 renal
NCI/ADR-RES ovarian = tested on: NCI/ADR-RES ovarian
SF-295 CNS = tested on: SF-295 CNS
SNB-19 CNS = tested on: SNB-19 CNS
HS 578T breast = tested on: HS 578T breast
A549 NSCLC = tested on: A549 NSCLC
SN12C renal = tested on: SN12C renal
OVCAR-5 ovarian = tested on: OVCAR-5 ovarian
HCT-116 colon = tested on: HCT-116 colon
CAKI-1 renal = tested on: CAKI-1 renal
IGROV1 ovarian = tested on: IGROV1 ovarian
HT29 colon = tested on: HT29 colon
NCI-H23 lung = tested on: NCI-H23 lung
OVCAR-3 ovarian = tested on: OVCAR-3 ovarian
TK-10 renal = tested on: TK-10 renal
KM12 colon = tested on: KM12 colon
MCF7 breast = tested on: MCF7 breast
U251 CNS = tested on: U251 CNS
NCI-H226 lung = tested on: NCI-H226 lung
NCI-H460 lung = tested on: NCI-H460 lung
MDA-MB-231 breast = tested on: MDA-MB-231 breast
EKVX NSCLC = tested on: EKVX NSCLC
HL-60(TB) leukemia = tested on: HL-60(TB) leukemia
DU-145 prostate = tested on: DU-145 prostate
RXF 393 renal = tested on: RXF 393 renal
SK-MEL-5 melanoma = tested on: SK-MEL-5 melanoma
SK-OV-3 ovarian = tested on: SK-OV-3 ovarian
OVCAR-8 ovarian = tested on: OVCAR-8 ovarian
SF-268 CNS = tested on: SF-268 CNS
BT-549 breast = tested on: BT-549 breast
SK-MEL-2 melanoma = tested on: SK-MEL-2 melanoma
LOX IMVI melanoma = tested on: LOX IMVI melanoma
SR leukemia = tested on: SR leukemia
HCC-2998 colon = tested on: HCC-2998 colon
MOLT-4 leukemia = tested on: MOLT-4 leukemia
CCRF-CEM leukemia = tested on: CCRF-CEM leukemia
SF-539 CNS = tested on: SF-539 CNS

SMILES: CC(C)CC(NC(=O)OC(C)(C)C)C(=O)NC(CCC(=O)OCc1ccccc1)C(N)=O (stereo not drawn) (Boc-Leu-Glu(OBn)-NH2; configuration not given here)
- GI50 (UACC-257 melanoma): 20.1 µg/mL
- TGI (UACC-257 melanoma): 85.9 µg/mL
- GI50 (COLO 205 colon): 87.1 µg/mL (≈ 194 µM)
- GI50 (SK-MEL-28 melanoma): 20.8 µg/mL
- TGI (SK-MEL-28 melanoma): 51.4 µg/mL
- GI50 (UACC-62 melanoma): 47.9 µg/mL
- GI50 (MALME-3M melanoma): 32.2 µg/mL
- GI50 (SNB-75 CNS): 32.7 µg/mL
- GI50 (K-562 leukemia): 54.1 µg/mL
- GI50 (A498 renal): 45.5 µg/mL
- GI50 (NCI-H522 lung): 29.4 µg/mL (≈ 65.5 µM)
- GI50 (M14 melanoma): 32.7 µg/mL
- GI50 (UO-31 renal): 85.5 µg/mL
- GI50 (RPMI-8226 leukemia): 43.9 µg/mL
- GI50 (OVCAR-4 ovarian): 34.8 µg/mL

SMILES: COc1cccc2c1C(=O)c1c(O)c3c(c(O)c1C2=O)C[C@@](O)(/C(C)=N/NC(=O)c1ccc(Cl)c(Cl)c1)C[C@@H]3OC1CC(N)C(O)C(C)O1 (stereo not given in full)
- TGI (UACC-257 melanoma): 1.05 µM
- TGI (COLO 205 colon): 1.5 µM
- TGI (SK-MEL-28 melanoma): 0.274 µM
- TGI (UACC-62 melanoma): 0.34 µM
- TGI (T-47D breast): > 100 µM
- TGI (MDA-MB-435): 1.11 µM
- TGI (SW-620 colon): 1.35 µM
- TGI (MALME-3M melanoma): 0.0838 µM
- TGI (ACHN renal): 0.256 µM
- TGI (HOP-62 NSCLC): 1.28 µM
- TGI (HCT-15 colon): 1.16 µM
- TGI (786-0 renal): 2.1 µM
- TGI (NCI/ADR-RES ovarian): 2.84 µM
- TGI (SF-295 CNS): 0.527 µM
- TGI (SNB-19 CNS): 0.445 µM
- TGI (HS 578T breast): 3.18 µM
- TGI (SNB-75 CNS): 2.02 µM
- TGI (A549 NSCLC): 2.68 µM
- TGI (SN12C renal): 0.877 µM
- TGI (OVCAR-5 ovarian): 0.686 µM
- TGI (K-562 leukemia): 1.06 µM
- TGI (HCT-116 colon): 1.04 µM
- TGI (CAKI-1 renal): 0.562 µM
- TGI (IGROV1 ovarian): > 100 µM
- TGI (HT29 colon): 0.379 µM
- TGI (NCI-H23 lung): 0.618 µM
- TGI (OVCAR-3 ovarian): 0.934 µM
- TGI (M14 melanoma): 1.2 µM
- TGI (TK-10 renal): 1.83 µM
- TGI (UO-31 renal): > 100 µM
- TGI (KM12 colon): 0.624 µM
- TGI (MCF7 breast): > 100 µM
- TGI (U251 CNS): 0.363 µM
- TGI (NCI-H226 lung): 0.231 µM
- TGI (NCI-H460 lung): > 100 µM
- TGI (MDA-MB-231 breast): 2.51 µM
- TGI (EKVX NSCLC): 7.4 µM
- TGI (HL-60(TB) leukemia): 0.397 µM

SMILES: CCS/C(Nc1ccccc1)=C(\C#N)C(=O)N/N=C/c1ccc(Cl)cc1Cl
- GI50 (UACC-257 melanoma): 25.7 µM
- TGI (UACC-257 melanoma): > 100 µM
- GI50 (DU-145 prostate): 3.57 µM
- TGI (DU-145 prostate): > 100 µM
- GI50 (RXF 393 renal): 2.06 µM
- TGI (RXF 393 renal): 8.66 µM
- GI50 (SK-MEL-28 melanoma): 23.6 µM
- TGI (SK-MEL-28 melanoma): > 100 µM
- GI50 (UACC-62 melanoma): 2.74 µM
- TGI (UACC-62 melanoma): > 100 µM
- GI50 (SK-MEL-5 melanoma): 2.28 µM
- TGI (SK-MEL-5 melanoma): 8.53 µM
- GI50 (SK-OV-3 ovarian): 3.72 µM
- TGI (SK-OV-3 ovarian): > 100 µM
- GI50 (T-47D breast): 4.03 µM
- TGI (T-47D breast): > 100 µM
- GI50 (MDA-MB-435): 0.419 µM
- TGI (MDA-MB-435): 2.23 µM
- GI50 (OVCAR-8 ovarian): 4.81 µM
- TGI (OVCAR-8 ovarian): > 100 µM
- GI50 (SF-268 CNS): 6.58 µM
- TGI (SF-268 CNS): > 100 µM
- GI50 (SW-620 colon): 4.65 µM
- TGI (SW-620 colon): > 100 µM
- GI50 (MALME-3M melanoma): 9.3 µM
- TGI (MALME-3M melanoma): > 100 µM
- GI50 (BT-549 breast): 2.8 µM
- TGI (BT-549 breast): > 100 µM
- GI50 (ACHN renal): 7.08 µM
- TGI (ACHN renal): > 100 µM
- GI50 (HOP-62 NSCLC): 3.66 µM
- TGI (HOP-62 NSCLC): > 100 µM
- GI50 (HCT-15 colon): 2.9 µM
- TGI (HCT-15 colon): > 100 µM
- GI50 (SK-MEL-2 melanoma): 3.24 µM
- TGI (SK-MEL-2 melanoma): 43.6 µM
- GI50 (786-0 renal): 3.5 µM
- TGI (786-0 renal): > 100 µM
- GI50 (NCI/ADR-RES ovarian): 3.16 µM
- TGI (NCI/ADR-RES ovarian): > 100 µM
- GI50 (SF-295 CNS): 2.89 µM
- TGI (SF-295 CNS): > 100 µM
- GI50 (SNB-19 CNS): 4.17 µM
- TGI (SNB-19 CNS): > 100 µM
- GI50 (LOX IMVI melanoma): 5.88 µM
- TGI (LOX IMVI melanoma): > 100 µM
- GI50 (HS 578T breast): 2.74 µM
- TGI (HS 578T breast): 98.7 µM
- GI50 (SR leukemia): 3.45 µM
- TGI (SR leukemia): > 100 µM
- GI50 (SNB-75 CNS): 2.15 µM
- TGI (SNB-75 CNS): 9.37 µM
- GI50 (A549 NSCLC): 4.63 µM
- TGI (A549 NSCLC): > 100 µM
- GI50 (SN12C renal): 6.92 µM
- TGI (SN12C renal): > 100 µM
- GI50 (OVCAR-5 ovarian): 8.25 µM
- TGI (OVCAR-5 ovarian): > 100 µM
- GI50 (K-562 leukemia): 0.855 µM
- TGI (K-562 leukemia): > 100 µM
- GI50 (HCT-116 colon): 2.99 µM
- TGI (HCT-116 colon): > 100 µM
- GI50 (CAKI-1 renal): 2.39 µM
- TGI (CAKI-1 renal): > 100 µM
- GI50 (IGROV1 ovarian): 6.46 µM
- TGI (IGROV1 ovarian): > 100 µM
- GI50 (HT29 colon): 3.7 µM
- TGI (HT29 colon): > 100 µM
- GI50 (NCI-H23 lung): 6.47 µM
- TGI (NCI-H23 lung): > 100 µM
- GI50 (A498 renal): 1.87 µM
- TGI (A498 renal): 37.8 µM
- GI50 (OVCAR-3 ovarian): 2.8 µM
- TGI (OVCAR-3 ovarian): 10.7 µM
- GI50 (M14 melanoma): 2.01 µM
- TGI (M14 melanoma): 9.61 µM
- GI50 (HCC-2998 colon): 5.47 µM
- TGI (HCC-2998 colon): > 100 µM
- GI50 (MOLT-4 leukemia): 3.48 µM
- TGI (MOLT-4 leukemia): > 100 µM
- GI50 (TK-10 renal): 10.2 µM
- TGI (TK-10 renal): > 100 µM
- GI50 (CCRF-CEM leukemia): 3.07 µM
- TGI (CCRF-CEM leukemia): > 100 µM
- GI50 (UO-31 renal): 6.91 µM
- TGI (UO-31 renal): > 100 µM
- GI50 (KM12 colon): 4.04 µM
- TGI (KM12 colon): > 100 µM
- GI50 (RPMI-8226 leukemia): 3.68 µM
- TGI (RPMI-8226 leukemia): > 100 µM
- GI50 (SF-539 CNS): 2.89 µM
- TGI (SF-539 CNS): 20.6 µM
- GI50 (MCF7 breast): 2.99 µM
- TGI (MCF7 breast): > 100 µM
- GI50 (U251 CNS): 3.95 µM
- TGI (U251 CNS): > 100 µM
- GI50 (OVCAR-4 ovarian): 6.57 µM
- TGI (OVCAR-4 ovarian): > 100 µM
- GI50 (NCI-H226 lung): 4 µM
- TGI (NCI-H226 lung): > 100 µM
- GI50 (NCI-H460 lung): 3.16 µM
- TGI (NCI-H460 lung): > 100 µM
- GI50 (MDA-MB-231 breast): 4.75 µM
- TGI (MDA-MB-231 breast): > 100 µM
- GI50 (EKVX NSCLC): 5.09 µM
- TGI (EKVX NSCLC): > 100 µM
- GI50 (HL-60(TB) leukemia): 3.2 µM
- TGI (HL-60(TB) leukemia): > 100 µM

SMILES: Cc1ccc(S(=O)(=O)N2CCN3CCN(CCN(C)CCN4CCN(CC4)CCN(S(=O)(=O)c4ccc(C)cc4)CCN(S(=O)(=O)c4ccc(C)cc4)CCN(S(=O)(=O)c4ccc(C)cc4)CCN(S(=O)(=O)c4ccc(C)cc4)CCN4CCN(CCN(C)CCN5CCN(CC5)CCN(S(=O)(=O)c5ccc(C)cc5)CCN(S(=O)(=O)c5ccc(C)cc5)CCN(S(=O)(=O)c5ccc(C)cc5)CC2)CC4)CC3)cc1
- TGI (SF-268 CNS): 6.62 µM
- TGI (HCT-15 colon): 2.82 µM
- TGI (NCI/ADR-RES ovarian): > 100 µM
- TGI (SR leukemia): 10.6 µM
- TGI (SNB-75 CNS): 5.58 µM
- TGI (OVCAR-5 ovarian): 3.42 µM
- TGI (K-562 leukemia): 11 µM
- TGI (MOLT-4 leukemia): 2.91 µM
- TGI (CCRF-CEM leukemia): 0.972 µM
- TGI (RPMI-8226 leukemia): 11.9 µM
- TGI (SF-539 CNS): 4.45 µM
- TGI (MCF7 breast): 3.3 µM
- TGI (EKVX NSCLC): 5.82 µM
- TGI (HL-60(TB) leukemia): 2.7 µM

Source: PubChem BioAssay (NCI)
